Test results as given in patent EP0091185A2, “Berbane derivatives” (CHINOIN Gyogyszer és Vegyészeti Termékek Gyára RT., priority 1982, dated 1983).

Legend:
CFY strain male rats = experiment: Systolic blood pressure of non-anaesthetized rats, measured indirectly on the tail with a cuff; format: in vivo; details: for Blood pressure change related to the starting (control) value, 3rd hour / Blood pressure change related to the starting (control) value, 6th hour / Blood pressure change related to the starting (control) value, 12th hour / Blood pressure change related to the starting (control) value, 18th hour / Blood pressure change related to the starting (control) value, 24th hour / Blood pressure change related to the starting (control) value, 48th hour: n 5; for dose achieving hypotension of approximately the same intensity and duration: comparison of reserpine and the racemic compound, i.p.
Method: The tests were carried. out on CFY strain male rats weighing 250-300 g. The systolic blood pressure was measured indirectly on the tails of the animals pressed down with the aid. of a cuff. […] The systolic blood pressure was determined by observing simultaneously the manometer and the out-signal.

CFLP strain female mice = details: mouse, in vivo
Method: These tests were carried out on CFLP strain female mice weighing 20-25 g by the rotating rod method [A. Kovach: Testing methods of experimental medical sciences - A kisérletes orvostudomany vizsgáló m6dszerei - Akad6mia kiad6, Budapest, VI. 232-233, 1962)].

[1] = test system: male rats weighing 300 and having hypertension; experiment: Systolic blood pressure decrease by the optically active enantiomers in hypertensive rats; format: in vivo; details: intraperitoneal 20 mg/kg, sixth hour following administration (maximum of the effect)
Method: The tests were carried. out on CFY strain male rats weighing 250-300 g. The systolic blood pressure was measured indirectly on the tails of the animals pressed down with the aid. of a cuff. When the pressure of the pressing cuff attached to a mercury manometer decreased just under the systolic pressure, the sensing head of the measuring apparatus (VP 101 microphone adapted for this purpose and placed on the tails of the rats) signalled the appearence of arterial pulsation both in acustical and visual way (oscilloscope). The systolic blood pressure was determined by observing simultaneously the manometer and the out-signal. When administering the raoemic compound intraperitoneally in doses of 10 and. […] The characteristics of the hypotensive effect of reserpine used as control are substantially the same as those of the racemic compound; hypotension of approximately the same intensity and duration can be achieved by administering 2,5 mg/kg of reserpine and 20 mg/kg of the racemic compound, respectively.
The optically active enantiomers were administered in intraperitoneal doses of 20 mg/kg to male rats weighing 300 and having hypertension. […]

[2] = 10 mg/kg i.p., n 5, control 115 ± 2
[3] = 20 mg/kg i.p., n 5, control 116 ± 2
[4] = intraperitoneally 10 and 20 mg/kg
[5] = 2,5 mg/kg i.p., n 5, control 117 ± 2
[6] = 5,0 mg/kg i.p., n 5, control 118 ± 2

COC(=O)[C@H]1C(=O)[C@@H](OC(=O)c2cc(OC)c(OC)c(OC)c2)C[C@@H]2CN3CCc4cc5c(cc4[C@H]3C[C@@H]21)OCO5 (racemic) [SC-T 40, Racemic methyl-7,8-methylened.ioxy-15-(3,4,5--trimethoxy-benzoyloxy)-14-oxo-epiallo--berbane-13-carboxylate]
Blood pressure change related to the starting (control) value, 3rd hour (CFY strain male rats; 10 mg/kg i.p.): -4,23%
Blood pressure (Hgmm; x̄ ± S.E.) 3rd hour (CFY strain male rats; [2]): 110 ± 2 Hgmm
Blood pressure change related to the starting (control) value, 6th hour (CFY strain male rats; 10 mg/kg i.p.): -13,88%
Blood pressure (Hgmm; x̄ ± S.E.) 6th hour (CFY strain male rats; [2]): 99 ± 3 Hgmm
Blood pressure change related to the starting (control) value, 12th hour (CFY strain male rats; 10 mg/kg i.p.): -12,14%
Blood pressure (Hgmm; x̄ ± S.E.) 12th hour (CFY strain male rats; [2]): 101 ± 2 Hgmm
Blood pressure change related to the starting (control) value, 18th hour (CFY strain male rats; 10 mg/kg i.p.): -9,53%
Blood pressure (Hgmm; x̄ ± S.E.) 18th hour (CFY strain male rats; [2]): 104 ± 2 Hgmm
Blood pressure change related to the starting (control) value, 24th hour (CFY strain male rats; 10 mg/kg i.p.): -9,64%
Blood pressure (Hgmm; x̄ ± S.E.) 24th hour (CFY strain male rats; [2]): 104 ± 4 Hgmm
Blood pressure change related to the starting (control) value, 48th hour (CFY strain male rats; 10 mg/kg i.p.): -9,53%
Blood pressure (Hgmm; x̄ ± S.E.) 48th hour (CFY strain male rats; [2]): 104 ± 2 Hgmm
Blood pressure change related to the starting (control) value, 3rd hour (CFY strain male rats; 20 mg/kg i.p.): -7,98%
Blood pressure (Hgmm; x̄ ± S.E.) 3rd hour (CFY strain male rats; [3]): 107 ± 2 Hgmm
Blood pressure change related to the starting (control) value, 6th hour (CFY strain male rats; 20 mg/kg i.p.): -19,53%
Blood pressure (Hgmm; x̄ ± S.E.) 6th hour (CFY strain male rats; [3]): 93 ± 6 Hgmm
Blood pressure change related to the starting (control) value, 12th hour (CFY strain male rats; 20 mg/kg i.p.): -17,11%
Blood pressure (Hgmm; x̄ ± S.E.) 12th hour (CFY strain male rats; [3]): 96 ± 2 Hgmm
Blood pressure change related to the starting (control) value, 18th hour (CFY strain male rats; 20 mg/kg i.p.): -12,76%
Blood pressure (Hgmm; x̄ ± S.E.) 18th hour (CFY strain male rats; [3]): 101 ± 3 Hgmm
Blood pressure change related to the starting (control) value, 24th hour (CFY strain male rats; 20 mg/kg i.p.): -9,42%
Blood pressure (Hgmm; x̄ ± S.E.) 24th hour (CFY strain male rats; [3]): 105 ± 2 Hgmm
Blood pressure change related to the starting (control) value, 48th hour (CFY strain male rats; 20 mg/kg i.p.): -4,23%
Blood pressure (Hgmm; x̄ ± S.E.) 48th hour (CFY strain male rats; [3]): 111 ± 1 Hgmm
dose achieving hypotension of approximately the same intensity and duration (CFY strain male rats): 20 mg/kg
duration of the hypotensive effect (CFY strain male rats; [4]): still detected in the 48th hour
time at which the hypotensive effect reached its maximum (CFY strain male rats; [4]): sixth hour
hypotensive effect (CFY strain male rats; intraperitoneally 10 and 20 mg/kg, 3-6 hours after the administration): significant hypotensive effect
Time for which mice stayed on the rotating rod (average, n = 10) (CFLP strain female mice): 102 ± 12,0
effect on coordination (CFLP strain female mice): did not exhibit any effect on coordination

COC(=O)[C@H]1[C@H]2C[C@@H]3c4[nH]c5cc(OC)ccc5c4CCN3C[C@H]2C[C@@H](OC(=O)c2cc(OC)c(OC)c(OC)c2)[C@@H]1OC [RESERPINE, reserpine, reference compound]
Blood pressure change related to the starting (control) value, 3rd hour (CFY strain male rats; 2,5 mg/kg i.p.): -11,11%
Blood pressure (Hgmm; x̄ ± S.E.) 3rd hour (CFY strain male rats; [5]): 104 ± 2 Hgmm
Blood pressure change related to the starting (control) value, 6th hour (CFY strain male rats; 2,5 mg/kg i.p.): -18,8%
Blood pressure (Hgmm; x̄ ± S.E.) 6th hour (CFY strain male rats; [5]): 95 ± 2 Hgmm
Blood pressure change related to the starting (control) value, 12th hour (CFY strain male rats; 2,5 mg/kg i.p.): -9,4%
Blood pressure (Hgmm; x̄ ± S.E.) 12th hour (CFY strain male rats; [5]): 106 ± 2 Hgmm
Blood pressure change related to the starting (control) value, 18th hour (CFY strain male rats; 2,5 mg/kg i.p.): -12,82%
Blood pressure (Hgmm; x̄ ± S.E.) 18th hour (CFY strain male rats; [5]): 102 ± 1 Hgmm
Blood pressure change related to the starting (control) value, 24th hour (CFY strain male rats; 2,5 mg/kg i.p.): -10,26%
Blood pressure (Hgmm; x̄ ± S.E.) 24th hour (CFY strain male rats; [5]): 105 ± 3 Hgmm
Blood pressure change related to the starting (control) value, 48th hour (CFY strain male rats; 2,5 mg/kg i.p.): -6,48%
Blood pressure (Hgmm; x̄ ± S.E.) 48th hour (CFY strain male rats; [5]): 109 ± 2 Hgmm
Blood pressure change related to the starting (control) value, 3rd hour (CFY strain male rats; 5,0 mg/kg i.p.): -15,25%
Blood pressure (Hgmm; x̄ ± S.E.) 3rd hour (CFY strain male rats; [6]): 100 ± 5 Hgmm
Blood pressure change related to the starting (control) value, 6th hour (CFY strain male rats; 5,0 mg/kg i.p.): -19,49%
Blood pressure (Hgmm; x̄ ± S.E.) 6th hour (CFY strain male rats; [6]): 95 ± 7 Hgmm
Blood pressure change related to the starting (control) value, 12th hour (CFY strain male rats; 5,0 mg/kg i.p.): -13,56%
Blood pressure (Hgmm; x̄ ± S.E.) 12th hour (CFY strain male rats; [6]): 102 ± 1 Hgmm
Blood pressure change related to the starting (control) value, 18th hour (CFY strain male rats; 5,0 mg/kg i.p.): -8,47%
Blood pressure (Hgmm; x̄ ± S.E.) 18th hour (CFY strain male rats; [6]): 108 ± 2 Hgmm
Blood pressure change related to the starting (control) value, 24th hour (CFY strain male rats; 5,0 mg/kg i.p.): -10,17%
Blood pressure (Hgmm; x̄ ± S.E.) 24th hour (CFY strain male rats; [6]): 106 ± 3 Hgmm
Blood pressure change related to the starting (control) value, 48th hour (CFY strain male rats; 5,0 mg/kg i.p.): -5.93%
Blood pressure (Hgmm; x̄ ± S.E.) 48th hour (CFY strain male rats; [6]): 111 ± 2 Hgmm
dose achieving hypotension of approximately the same intensity and duration (CFY strain male rats): 2,5 mg/kg
Time for which mice stayed on the rotating rod (average, n = 10) (CFLP strain female mice): 9 ± 3,3
effect on coordination (CFLP strain female mice): roduced coordination to a very significatn extent

(+)-Methyl-7,8-methylenedioxy-15-(3,4,5--trimethoxy-benzoyloxy)-l4-oxo-epiallo--berbane-13-carboxylate [[(+), I]]
blood-pressure decrease (average, n = 6) [1]: 15,6 Hgmm

(-)-Methyl-7,8-methylenedioxy-15-(3,4,5--trimethoxy-benzoyloxy)-14-oxo-epiallo--berbane-13-carboxylate [[(-), I]]
blood-pressure decrease (average, n = 6) [1]: 14,8 Hgmm
